Data reported in US20230047816A1 (priority 2018, published 2023).
Entries after “also recorded” stand apart in the source; their conditions may differ.

Legend:
[1] = system: mouse primary cortical neurons; test: NADPH/NADP upon excitotoxic stimuli; assay type: cell-based; conditions: glutamate 100 μM 10 minutes, then inhibitor 0.01 μM 24 hours
Procedure: Neurons were then washed and further incubated in culture medium with the PFKFB3 inhibitors for 24 hours. A colorimetric NADP/NADPH assay kit (Abcam) was used. Cells were resuspended in 500 μl of NADP/NADPH extraction buffer, vortexed and centrifuged at 14,000 rpm for 5 minutes to remove insoluble material. The supernatant was used for NADPH +plus NADP+ measurement. NADPH was determined in 200 μl of the supernatant, after […] 60° C. for 30 minutes to decompose NADP+. Actual NADP and NADPH+ concentrations were calculated by extrapolating values to a NADPH standard curve (0-100 pmol/well).

[2] = system: neurons from Cln7 knock out (KO) mice; test: In vitro model of Batten disease, active Caspase-3 Western blot; assay type: cell-based, mouse; conditions: 10 nM, 24 hours
Procedure: Primary cultures of C57BL/6J WT and Cln7Δex2 mice cortical neurons were prepared from fetal animals of 14.5 days of gestation, seeded at 1.8·10^5 cells/cm2 in plastic plates coated with poly-D-lysine […] and incubated in Neurobasal (Life Technologies) supplemented with 2 mM glutamine, 5 mM of glucose, 0.25 mM pyruvate and 2% B27 supplement (Life Technologies). Cells were incubated at 37° C. in a humidified 5% CO2-containing atmosphere. At 72 hours after plating, medium was replaced using Neurobasal (Life Technologies) supplemented with 2 mM glutamine, 5 mM glucose, 0.25 mM pyruvate and 2% B27 supplement (Life Technologies) minus antioxidants (MAO; i.e., lacking vitamin E, vitamin E acetate, superoxide dismutase, catalase, and glutathione). Six days after the plating medium was replaced again. Cells were used at day 9.
Neurons were incubated with 10 nM or vehicle for 24 hours and apoptosis was evaluated by measuring the level of active Caspase-3 form using Western blot. Neurons were lysed in RIPA buffer (2% sodium dodecylsulphate, 2 mM EDTA, 2 mM EGTA and 50 mM Tris pH 7.5), supplemented with protease and phosphatase inhibitor cocktail (100 μM phenylmethylsulfonyl fluoride, 50 μg/ml antipapain, 50 μg/ml pepstatin, 50 μg/ml amastatin, 50 μg/ml leupeptin, 50 μg/ml bestatin, 1 mM o-vanadate, 50 mM NaF, and 50 μg/ml soybean trypsin inhibitor) and boiled for 5 min. […]

Cln7Aex2 mice = Cln7Aex2 mice in vivo (cortex pathology, hindlimb paralysis)
[3] = system: mouse primary cortical neurons; test: Mitochondrial ROS (MitoSox) upon excitotoxic stimuli; assay type: cell-based; conditions: NMDA and glutamate excitotoxic models; inhibitor 0.01 μM
Procedure: To directly test the ability of the PFKFB3 inhibitor, AZ67 and Compound 1, to protect against the damage caused by excitotoxic stimuli, mouse primary cortical neurons were subjected to a short-term exposure to NMDA or glutamate (100 μM for 10 minutes), a well-known excitotoxic stimuli (Almeida and Bolahos, 2001). For NMDAR activation, neurons at 8 days in vitro were incubated with 100 μM glutamate (plus 10 μM glycine) or 100 μM NMDA (plus 10 μM glycine) for 10 minutes. Neurons were then washed and further incubated in culture medium with the PFKFB3 inhibitors for 24 hours. A colorimetric NADP/NADPH assay kit (Abcam) was used. Cells were resuspended in 500 μl of NADP/NADPH extraction buffer, vortexed and centrifuged at 14,000 rpm for 5 minutes to remove insoluble material. The supernatant was used for NADPH +plus NADP+ measurement. NADPH was determined in 200 μl of the supernatant, after heatinged […] 60° C. for 30 minutes to decompose NADP+. Actual NADP and NADPH+ concentrations were calculated by extrapolating values to a NADPH standard curve (0-100 pmol/well).
Mitochondrial ROS was detected using the fluorescent probe MitoSox™ (Life Technologies). […] MitoSox™ fluorescence was assessed by flow cytometry and expressed in arbitrary units.

[4] = Cln7Aex2 mice in vivo, FIGS. 15A-15C

Cc1noc(C)c1Cn1cc(C#N)c2cc(Oc3ccc(NC(=O)[C@@H]4CCCN4)cc3)ccc21 [AZ67, (2S)-N-[4-({3-cyano-1-[(3,5-dimethyl-1,2-oxazol-4-yl)methyl]-1H-indol-5-yl}oxy)phenyl]pyrrolidine-2-carboxamide]
NADPH oxidation / NADPH/NADP ratio [1]: prevented; also recorded: restore NADPH/NADP ratio | apoptosis level (active Caspase-3) [2]: significantly reduced | accumulation of SCMAS in the cortex (Cln7Aex2 mice; [4]): prevented the accumulation | accumulation of lipofuscin in the cortex (Cln7Aex2 mice; [4]): prevented the accumulation | accumulation of reactive astroglia in the cortex (Cln7Aex2 mice; [4]): prevented the accumulation | hindlimb paralysis (Cln7Aex2 mice; Cln7Aex2 mice, FIG. 15D): prevented | increase in mitochondrial ROS [3]: significantly prevented the increase in mitochondrial ROS; also recorded: prevent mitochondrial ROS increase
